Laboratory results taken from US12157730B2, “Heteroaryl derivative, method for producing same, and pharmaceutical composition comprising same as effective component” (VORONOI INC., priority 2019, dated 2024).

Target: T1, Ba/F3 cell EGFR Exon20 ins NPH (Homo sapiens, UniProt P00533, INS773NPH)
T1 construct: expressed in transfected cells; host or cells: Ba/F3
Assay: Ba/F3 cell proliferation suppression, EGFR Exon20 ins NPH
Format: cell-based
Conditions: GI50 class; Ba/F3 cell line with NPH inserted at Exon20 of EGFR; 72 hours
Outline: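 Cells (3000–5000/well) plated 24 h before compound, 12-point 3-fold dilutions at 0.3 nM to 50 um final; Ba/F3 lines grown with 5 ng/ml IL-3. Viability by CellTiter-Glo luminescence after 72 h, growth ratio vs control, GI50 from curves; triplicate.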

Structure (SMILES) | Ba/F3 (NPH) Activity
C=CC(=O)Nc1cc(Nc2cc(N3OCC[C@@H]3c3ccc(F)cc3)ncn2)c(OC)cc1N1CCC(N2CCN(C3CCC3)CC2)CC1 [Example 76, N-(2-(4-(4-cyclobutylpiperazine-1-yl)piperidine-1-yl)-5-((6-((R)-3-(4-fluorophenyl)isoxazolidine-2-yl)pyrimidine-4-yl)amino)-4-methoxyphenyl) acrylamide] | A (GI50 < 50 nM)
C=CC(=O)Nc1cc(Nc2cc(N3OCC[C@@H]3c3cccc(C)c3F)ncn2)c(OC)cc1N1CCC(N2C[C@H]3C[C@@H]2CO3)CC1 [compound 320, N-(2-(4-((1R,4R)-2-oxa-5-azabicyclo[2.2.1]heptane-5-yl)piperidine-1-yl)-5-((6-((R)-3-(2-fluoro-3-methylphenyl)isoxazolidine-2-yl)pyrimidine-4-yl)amino)-4-methoxyphenyl) acrylamide] | A (GI50 < 50 nM)
C=CC(=O)Nc1cc(Nc2cc(N3OCC[C@@H]3c3cccc(F)c3)ncn2)c(OC)cc1N1CCC(N2C[C@H]3C[C@@H]2CO3)CC1 [Example 243, N-(2-(4-((1R,4R)-2-oxa-5-azabicyclo[2.2.1]heptane-5-yl)piperidine-1-yl)-5-((6-((R)-3-(3-fluorophenyl)isoxazolidine-2-yl)pyrimidine-4-yl)amino)-4-methoxyphenyl) acrylamide] | A (GI50 < 50 nM)
C=CCN1CCN(C2CCN(c3cc(OC)c(Nc4cc(N5OCC[C@@H]5c5cccc(OC)c5)ncn4)cc3NC(=O)C=C)CC2)CC1 [Example 215, N-(2-(4-(4-allylpiperazine-1-yl)piperidine-1-yl)-4-methoxy-5-((6-((R)-3-(3-methoxyphenyl)isoxazolidine-2-yl)pyrimidine-4-yl)amino)phenyl) acrylamide] | C (500 nM ≤ GI50 < 5000 nM)
C=CC(=O)Nc1cc(Nc2cc(N3OCC[C@@H]3c3ccc(Cl)cc3F)ncn2)c(OC)cc1N1CCC(N2CCOCC2)CC1 [compound 455, N-(5-((6-((R)-3-(4-chloro-2-fluorophenyl)isoxazolidine-2-yl)pyrimidine-4-yl)amino)-4-methoxy-2-(4-morpholinopiperidine-1-yl)phenyl)acrylamide] | A (GI50 < 50 nM)
C=CC(=O)Nc1cc(Nc2cc(N3OCC[C@@H]3c3ccccc3)ncn2)c(OC)cc1N1CCC(N2CCN(C3CCOCC3)CC2)CC1 [Example 102, N-(4-methoxy-5-((6-((R)-3-phenylisoxazolidine-2-yl)pyrimidine-4-yl)amino)-2-(4-(4-(tetrahydro-2H-pyran-4-yl)piperazine-yl)piperidine-yl)phenyl)acrylamide] | A (GI50 < 50 nM)
C=CC(=O)Nc1cc(Nc2cc(N3OCC[C@@H]3c3ccc(Cl)cc3F)ncn2)c(OC)cc1N1CC[C@@H](N2CCOCC2)C1 [compound 406, N-(5-((6-((R)-3-(4-chloro-2-fluorophenyl)isoxazolidine-2-yl)pyrimidine-4-yl)amino)-4-methoxy-2-((R)-3-morpholinopyrolidine-1-yl)phenyl)acrylamide] | A (GI50 < 50 nM)
C=CC(=O)Nc1cc(Nc2cc(N3OCC[C@@H]3c3cccc(F)c3F)ncn2)c(OC)cc1N1CCC(N(C)C)CC1 [compound 926, N-(5-((6-((R)-3-(2,3-difluorophenyl)isoxazolidine-2-yl)pyrimidine-4-yl)amino)-2-(4-(dimethylamino)piperidine-1-yl)-4-methoxyphenyl) acrylamide] | A (GI50 < 50 nM)
C=CC(=O)Nc1cc(Nc2cc(N3OCC[C@@H]3c3ccc4ccccc4c3)ncn2)c(OC)cc1N1CC[C@@H](N(C)C)C1 [compound 513, N-(2-((R)-3-(dimethylamino)pyrolidine-1-yl)-4-methoxy-5-((6-((R)-3-(naphthalene-2-yl)isoxazolidine-2-yl)pyrimidine-4-yl)amino)phenyl)acrylamide] | B (50 nM ≤ GI50 < 500 nM)
